This is an account of results in patent US5444042A, “Method of treatment of neurodegeneration with calpain inhibitors” (Cortex Pharmaceuticals, priority 1994, dated 1995).

As a reminder, the IC50 is the concentration at which inhibition is half-maximal. A high value points to lower potency.

One assay has as its target T1, Calpain II (Homo sapiens, UniProt P17655).
T1 construct: from tissue; purified by a cited method
T1 sequence (P17655 1-700): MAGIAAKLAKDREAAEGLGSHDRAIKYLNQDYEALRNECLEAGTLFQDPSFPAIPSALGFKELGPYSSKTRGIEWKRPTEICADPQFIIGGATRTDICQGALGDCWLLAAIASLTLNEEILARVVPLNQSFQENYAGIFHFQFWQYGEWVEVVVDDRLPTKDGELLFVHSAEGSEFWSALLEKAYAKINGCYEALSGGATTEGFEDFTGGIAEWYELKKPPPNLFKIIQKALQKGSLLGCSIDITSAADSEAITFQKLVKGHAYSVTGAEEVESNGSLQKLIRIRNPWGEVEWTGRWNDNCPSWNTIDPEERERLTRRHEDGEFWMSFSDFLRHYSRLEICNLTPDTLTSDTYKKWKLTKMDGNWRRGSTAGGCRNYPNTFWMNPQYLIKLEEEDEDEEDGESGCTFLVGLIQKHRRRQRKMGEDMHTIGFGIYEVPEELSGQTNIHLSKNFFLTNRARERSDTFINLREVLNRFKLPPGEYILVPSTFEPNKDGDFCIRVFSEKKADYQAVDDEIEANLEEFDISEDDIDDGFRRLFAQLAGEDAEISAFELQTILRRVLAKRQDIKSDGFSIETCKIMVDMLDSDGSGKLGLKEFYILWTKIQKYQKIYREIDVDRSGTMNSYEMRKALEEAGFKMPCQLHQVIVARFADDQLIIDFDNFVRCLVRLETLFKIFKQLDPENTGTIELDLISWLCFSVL
T1 sequence (P04632 1-268 partner): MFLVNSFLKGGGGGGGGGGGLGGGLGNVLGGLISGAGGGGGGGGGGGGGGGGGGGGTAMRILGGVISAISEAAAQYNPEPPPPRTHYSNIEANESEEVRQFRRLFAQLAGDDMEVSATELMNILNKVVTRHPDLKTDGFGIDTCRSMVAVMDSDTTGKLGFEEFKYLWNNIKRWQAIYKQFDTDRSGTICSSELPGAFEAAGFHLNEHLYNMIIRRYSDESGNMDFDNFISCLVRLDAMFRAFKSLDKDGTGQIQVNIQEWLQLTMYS
The assay is described as follows: Calpain II 14C-methylated casein proteolysis (Table 1A). It is filed as biochemical. Here is the method: (§1) The isocoumarins are irreversible inhibitors of Calpain. We obtained IC50 values for a variety of these Calpain Inhibitors as a kinetic analysis of these compounds.
(§2) Calpains I and II were purified by the method of (Yoshimura, et al. 1983). (Kitahara 1984) provides an alternative purification scheme. Calpain II may alternatively be purchased from Sigma Chemical Co. as "Calcium Activated Neutral Protease." In this assay, purified Calpain was incubated with ^14 C-methylated casein in the presence of various Heterocyclic Compounds and the amount of acid-soluble radioactivity released by the action of Calpain was measured.

A further assay has as its target T2, Calpain I (Homo sapiens, UniProt P07384).
T2 sequence (P07384 1-714): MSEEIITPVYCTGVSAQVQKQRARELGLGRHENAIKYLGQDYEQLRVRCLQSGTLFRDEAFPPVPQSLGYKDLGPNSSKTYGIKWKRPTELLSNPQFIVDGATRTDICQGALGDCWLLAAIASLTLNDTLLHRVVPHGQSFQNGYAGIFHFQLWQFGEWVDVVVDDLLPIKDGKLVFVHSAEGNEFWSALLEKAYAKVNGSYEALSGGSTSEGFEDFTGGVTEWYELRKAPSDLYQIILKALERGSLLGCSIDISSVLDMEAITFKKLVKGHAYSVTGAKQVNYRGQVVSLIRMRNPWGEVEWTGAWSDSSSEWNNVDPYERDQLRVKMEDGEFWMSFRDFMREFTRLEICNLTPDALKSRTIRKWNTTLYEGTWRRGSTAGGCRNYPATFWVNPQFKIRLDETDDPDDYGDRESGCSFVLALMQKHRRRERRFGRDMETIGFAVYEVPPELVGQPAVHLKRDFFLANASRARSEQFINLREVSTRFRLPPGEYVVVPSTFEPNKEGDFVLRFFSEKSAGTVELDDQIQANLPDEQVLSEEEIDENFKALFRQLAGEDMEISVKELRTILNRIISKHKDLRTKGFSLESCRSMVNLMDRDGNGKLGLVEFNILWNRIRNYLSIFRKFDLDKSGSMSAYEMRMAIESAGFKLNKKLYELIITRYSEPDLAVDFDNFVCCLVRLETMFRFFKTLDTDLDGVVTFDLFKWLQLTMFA
T2 sequence (P04632 1-268 partner): T1 sequence (P04632 1-268 partner)
The assay can be described thus: Calpain I 14C-methylated casein proteolysis (Table 1A). It counts as biochemical. Here is the method:
as §1, §2

Assay [1] concerns Calpain activity (spectrin BDP's). The assay is described as follows: Transient ischemia in gerbils, spectrin BDP's in CA1 (Example 3B). It counts as in vivo, gerbil. To be noted: CA1 region, 30 minutes after clamping. Here is the method:
Implantation surgeries and clamping of the carotid arteries were performed as above with a control-ischemia group (n=4) and a leupeptin-ischemia group (n=5). A third group of animals (n=4) received implantation with pumping of saline, but was not subjected to ischemia. Animals were sacrificed by decapitation 30 minutes after clamping of the arteries. The brains were rapidly removed and placed in cold homogenization buffer (0.32M sucrose, 10 mM Tris-HCl, 2 mM EDTA, 1 mM EGTA, 100 μM leupeptin and 1 μg/ml of the Halo-Ketone Compound, tos-phe-CH2 Cl (TPCK)). The CA1 region of the hippocampus was then dissected. The samples from both control and leupeptin treated animals were then prepared for SDS-PAGE and immunoblotting with labeled anti-spectrin antibody, as described above in connection with in vitro uses of the Calpain Inhibitors. […] These BDP's co-migrated with BDP's observed after in vitro proteolysis of spectrin with Calpain.

Assay [2] has as its system gerbils subjected to transient ischemia. The assay can be described thus: Transient ischemia in gerbils, neuronal loss in CA1 (Example 3A). The settings on record: leupeptin 20 mg/ml intracerebroventricular perfusion 3 days before 10 min ischemia; 14 days later. It is filed as in vivo, gerbil. The method, then: A small cannula was implanted in the right lateral ventricle of adult gerbils, and secured to the skull with dental cement. An Alzet micro-osmotic pump was attached to the cannula for intracerebroventricular perfusion. The pump was filled with either saline alone (control) or leupeptin (20 mg/ml in saline). After three days perfusion with either the control solution or with the leupeptin solution, transient ischemia was induced by bilaterally clamping the carotid arteries for a period of ten minutes. […] Fourteen days later, the animals were sacrificed by Nembutal overdose and transcardial perfusion of a 10% solution of paraformaldehyde in PBS. Coronal sections of the brain were stained with cresyl violet and were examined for the extent of neuronal loss.

Regarding `N=C(N)SCCCOc1oc(=O)c2ccccc2c1Cl` [CiTprOIC, 4-chloro-3-(3-isothiureidopropoxy)isocoumarin], the IC50 stood at 70 µM on Calpain II and 100 µM against Calpain I.
Regarding `CC(=O)N[C@@H](CC(C)C)C(=O)N[C@@H](CC(C)C)C(=O)N[C@H](C=O)CCCNC(=N)N` [Leupeptin, Ac-Leu-Leu-Arg-H, reference compound], in assay [1], the “spectrin BDP's relative to control ischemia treated gerbils” value is recorded as “approximately 25%”. In addition, in assay [2], the “loss of neurons in CA1 field” value was found to be 15%.
Take `N=C(N)SCCCOc1oc(=O)c2cc(N)ccc2c1Cl` [NH2 -CiTPrOIC (ACITIC), 7-amino-4-chloro-3-(3-isothiureidopropoxy)isocoumarin]: the results for the 50% inhibitory concentration (IC50) against Calpain II and against Calpain I were 120 µM and 10 µM, respectively.
